Reference: article PMC3893781, “Triterpenoid Saponins Isolated from Platycodon grandiflorum Inhibit Hepatitis C Virus Replication” (Evidence-based Complementary and Alternative Medicine : eCAM, 2013)
≈ marks a conversion by molar mass, not a printed value. Like-named read-outs stand apart in the source and are kept apart here.

Legend:
[1] = test system: JFH1 viruses (HCV genotype 2a) in Huh7 cells; assay: Anti-HCV assay in HCVcc-infected cells (qRT-PCR); format: cell-based; details: Hepatitis C virus, Huh-7, 48 h, read-out: Inhibition of HCV RNA replication (EC50) JHF-1 (genotype 2a)
Description: Infectious JFH1 viruses (HCV genotype 2a) were generated as described previously. Huh7 cells were seeded in 24-well plates at a density of 5 × 10^4 cells per well. At 24 h after plating, cells were infected with JFH1 viruses for 2 h. After incubation, the supernatants were replaced with fresh medium. Increasing concentrations of PGMS and its triterpenoid saponins were added in a medium containing 2% DMSO, and cells were incubated at 37°C. At 48 h after infection, total RNAs were extracted and the HCV RNA levels were quantified by qRT-PCR assay. Anti-HCV activity was determined by HCV RNA levels in compound-treated cells as compared to mock-treated cells.

[2] = biological target: T1, HCV NS3/4A protease (Hepatitis C virus genotype 1b, UniProt Q9WMX2); assay: biochemical; format: biochemical; details: FRET peptide substrate; read-out: HCV enzyme (IC50) HCV NS3/4A
T1 construct: HCV-NS3/4A protease purified from E. coli; host or cells: E. coli
Description: The NS3/4A serine protease assay was performed using a HCV protease assay kit (SensoLyte, AnaSpec, Fremont, CA) according to the manufacturer's instructions. Briefly, HCV-NS3/4A protease purified from E. coli was mixed with the test compound in the assay buffer. After 15 min incubation at room temperature, EDANS/DABCYL-based fluorescence resonance energy transfer (FRET) peptide substrate solution was added and mixed. The FRET substrate was cleaved specifically by HCV NS3/4A protease, thereby liberating the C-terminal peptide-fluorophore fragment from the proximity quenching effect of the dark quencher, resulting in increase of fluorescence. The fluorescence intensity was measured immediately and continuously at excitation/emission at 340 nm and 490 nm.

[3] = test system: HCV subgenomic replicon (genotype 1b) in Huh7 cells; assay: Anti-HCV assay in HCV replicon cells (qRT-PCR); format: cell-based, HCV genotype 1b; details: Hepatitis C virus, Huh-7, 72 h, read-out: Inhibition of HCV RNA replication (EC50) CON1 (genotype 1b)
Description: Huh7 cells harboring HCV subgenomic replicon (genotype 1b) were maintained in the presence of 0.25 mg/mL G418 (Invitrogen, Carlsbad, CA). HCV replicon cells were seeded at a density of 1 × 10^4 cells/well in a 96-well plate and incubated at 37°C and 5% CO2. Following 24 h incubation, the culture medium was replaced with a medium containing serially diluted test compounds in the presence of 2% FBS and 1% DMSO. After cells were treated for 72 h with PGMS and triterpenoid saponins, total RNAs were extracted using a CellAmp Direct RNA Prep Kit (Korea Biomedical, Seoul, Korea). The HCV RNA levels were quantified by a quantitative real-time polymerase chain reaction (qRT-PCR) assay using IQ5 real-time PCR detection system (Bio-Rad, Hercules, CA, USA) with HCV-specific primers (5′-GACACTCCACCATAGATCACTC-3′ and 5′-CCC AAC ACT ACT CGG CTA G-3′) and probe (5′-FAM-CCCAAATCTCCAGGCATTGAGCGG-3′ BHQ-1). Results were normalized to glyceraldehyde-3-phosphate dehydrogenase gene (GAPDH). Anti-HCV activity was determined by HCV RNA levels in compound-treated cells as compared to mock-treated cells.

[4] = Cell viability assay (MTT); format: cell-based; details: human, Huh7 cells, read-out: Cytotoxicity (CC50)
Description: Cell viability was determined by the colorimetric 3-(4,5-dimethylthiazol-2-yl)-2,5-diphenyltetrazolium bromide (MTT) reagent (Promega Corporation) according to the manufacturer's instructions. The absorbance was detected at 570 nm using a Bio-Tek plate reader (Bio-Tek instrument, Weymouth, MA).

[5] = biological target: T2, HCV NS5B polymerase (NS5BCΔ21) (Hepatitis C virus genotype 1b, UniProt Q9WMX2); assay: RdRp assay with recombinant HCV NS5B polymerase; format: biochemical, HCV genotype 1b
T2 construct: HCV NS5B polymerase from HCV genotype 1b carrying an N-terminal GST-tag and C-terminal 21-amino acid truncation (NS5BCΔ21); made in house; host or cells: Escherichia coli
Description: Recombinant HCV NS5B polymerase from HCV genotype 1b carrying an N-terminal GST-tag and C-terminal 21-amino acid truncation (NS5BCΔ21) was expressed in Escherichia coli and purified as previously described with some modifications. The colorimetric reverse transcriptase assay kit (Roche Applied Science) was applied to perform RdRp assay. The inhibition of HCV RdRp activity was determined by the amount of double-stranded RNA synthesized by the recombinant NS5BΔC21 in the presence of various test compounds using HCV 3′-UTR as a template.

[6] = test system: HCV replicon cells (genotype 1b); assay: In vitro combination studies (CalcuSyn combination index); format: cell-based, HCV genotype 1b; details: in combination with PGSM; for Combination Index at EC50 / Combination Index at EC75 / Combination Index at EC90: 72 h, CalcuSyn; for Effect of combination: CI < 1 synergistic
Description: HCV Replicon cells were treated with various concentrations of inhibitors in twofold serial dilutions at a final dimethyl sulfoxide concentration of 1% including titrations of each of the compounds alone as reference controls. […] At three days after treatments, intracellular HCV RNA levels were determined by qRT-PCR. For the Loewe additive model, the experimental data were analyzed by using CalcuSyn (Biosoft, Ferguson, Mo.), a computer program based on the method of Chou and Talalay. A combination index (CI) value for each experimental combination was calculated by a quantitative measure of the degree of drug interaction in terms of additive effect (CI = 1), synergism (CI < 1), or antagonism (CI > 1) for a given endpoint of the effect measurement.

[7] = test system: HCV subgenomic replicon cells (genotype 1b); assay: Anti-HCV assay for 14 days; format: cell-based, HCV genotype 1b
Description: HCV replicon cells were plated at 2 × 10^5 cells per well in a 6-well plate. Each compound was serially diluted in DMEM containing 10% FBS and 0.2% DMSO as reported previously. Culture media were replaced with fresh medium and compounds every 3 days. Cells were harvested at 3, 6, 9, and 14 days and intracellular HCV RNA levels were analyzed by qRT-PCR. The relative copy number of HCV RNA per cell was calculated by comparing RNAs in cells treated with each compound with those RNAs in cells treated with 0.2% DMSO.

[8] = test system: Huh7 cells harboring HCV subgenomic replicon (genotype 1b); assay: Colony forming assay; format: cell-based, HCV genotype 1b; details: 5 U/mL of IFN-α alone, three weeks, G418
Description: G418 was included in the media to provide selective pressure on HCV replicon cells. After three weeks of treatment, surviving cells were stained with crystal violet [23].

[9] = read-out: HCV enzyme (IC50) HCV NS5B RdRp activity, recombinant NS5B, HCV 3′-UTR template

| Compound | EC50 [1] | IC50 [2] | EC50 [3] | CC50 [4] | IC50 [5] | Combination Index at EC50 [6] | Combination Index at EC75 [6] | Combination Index at EC90 [6] | Effect of combination [6] | Reduction of HCV RNA levels ([7]; IFN-α 10 U/mL) | Reduction of HCV RNA levels ([7]; IFN-α 50 U/mL) | Reduction of HCV RNA levels ([7]; IFN-α 100 U/mL) | Colony formation of HCV replicons [8] | IC50 [5, 9] |
| --- | --- | --- | --- | --- | --- | --- | --- | --- | --- | --- | --- | --- | --- | --- |
| C[C@@H]1O[C@@H](O[C@H]2[C@H](OC(=O)[C@]34CCC(C)(C)C[C@H]3C3=CC[C@@H]5[C@@]6(C)C[C@H](O)[C@H](O[C@@H]7O[C@H](CO)[C@@H](O)[C@H](O[C@@H]8O[C@H](CO)[C@@H](O)[C@H](O)[C@H]8O)[C@H]7O)C(CO)(CO)[C@@H]6CC[C@@]5(C)[C@]3(C)C[C@H]4O)OC[C@H](O)[C@@H]2O)[C@H](O)[C@H](O)[C@H]1O[C@@H]1OC[C@@H](O)[C@H](O[C@@H]2OC[C@](O)(CO)[C@H]2O)[C@H]1O [Platycodin D2, platycodin D2] | 12 µg/mL (≈ 8.65 µM) | > 72.1 µM | 1.05 µg/mL (≈ 0.757 µM) | 25 µg/mL (≈ 18 µM) | 4.32 µM |  |  |  |  |  |  |  |  |  |
| COC(=O)N[C@H](C(=O)N1CCC[C@H]1c1nc(-c2ccc(-c3ccc(-c4c[nH]c([C@@H]5CCCN5C(=O)[C@@H](NC(=O)OC)C(C)C)n4)cc3)cc2)c[nH]1)C(C)C [BMS790052, Daclatasvir] |  |  |  |  |  | 0.41 | 0.42 | 0.44 | Synergistic |  |  |  |  |  |
| C[C@@H]1O[C@@H](O[C@H]2[C@H](OC(=O)[C@]34CCC(C)(C)C[C@H]3C3=CC[C@@H]5[C@@]6(C)C[C@H](O)[C@H](O[C@@H]7O[C@H](CO)[C@@H](O)[C@H](O)[C@H]7O)C(CO)(CO)[C@@H]6CC[C@@]5(C)[C@]3(C)C[C@H]4O)OC[C@H](O)[C@@H]2O)[C@H](O)[C@H](O)[C@H]1O[C@@H]1OC[C@@H](O)[C@H](O[C@@H]2OC[C@](O)(CO)[C@H]2O)[C@H]1O [Platycodin D, platycodin D] | 3 µg/mL (≈ 2.45 µM) | > 81.6 µM | 0.35 µg/mL (≈ 0.286 µM) | 25 µg/mL (≈ 20.4 µM) | 4.08 µM |  |  |  |  |  |  |  |  |  |
| IFN-α |  |  |  |  |  | 0.45 | 0.39 | 0.34 | Synergistic | 0.4 log10 | 0.8 log10 | 1.5 log10 | unable to inhibit colony formation |  |
| CC1OC(OC2C(OC(=O)C34CCC(C)(C)CC3C3=CCC5C6(C)CC(O)C(OC7OC(COC8OC(CO)C(O)C(O)C8O)C(O)C(O)C7O)C(CO)(CO)C6CCC5(C)C3(C)CC4O)OC(CO)C2O)C(O)C(O)C1OC1OCC(O)C(OC2OCC(O)(CO)C2O)C1O (stereo not drawn) [Platycodin D3, platycodin D3] | 27 µg/mL (≈ 19.5 µM) | > 72.1 µM | 2.33 µg/mL (≈ 1.68 µM) | 100 µg/mL (≈ 72.1 µM) |  |  |  |  |  |  |  |  |  | 5.77 µM |
| CC1OC(OC2C(OC(=O)C34CCC(C)(C)CC3C3=CCC5C6(C)CC(O)C(OC7OC(CO)C(O)C(OC8OC(CO)C(O)C(O)C8O)C7O)C(CO)(CO)C6CCC5(C)C3(C)CC4O)OC(CO)C2O)C(O)C(O)C1OC1OCC(O)C(O)C1O (stereo not drawn) [Deapioplatycodin D2, deapioplatycodin D2] | 8 µg/mL (≈ 6.37 µM) | > 79.7 µM | 0.89 µg/mL (≈ 0.709 µM) | 100 µg/mL (≈ 79.7 µM) |  |  |  |  |  |  |  |  |  | 7.97 µM |
| CC(C)(C)OC(=O)N[C@H]1CCCCC/C=C\[C@@H]2C[C@@]2(C(=O)NS(=O)(=O)C2CC2)NC(=O)[C@@H]2C[C@@H](OC(=O)N3Cc4cccc(F)c4C3)CN2C1=O [R7227, Danoprevir] |  |  |  |  |  | 0.72 | 0.71 | 0.70 | Synergistic |  |  |  |  |  |
